Assays:
[1] = pKa printed beside the base in Table 1; cited from earlier work
[2] = Degree of dissolution of dye, visual observation after ultrasonic irradiation; assay type: physicochemical; design: key: good: when it was in a completely dissolved state; poor: when it left some residue; failed: when it was in a hardly dissolved state; details: 1.0 g dye in 200 ml 1:1 methanol/water, ultrasonic 30 min at 25° C.
[3] = pH value of dye solution measured with a pH-meter; assay type: physicochemical; details: 1.0 g dye in 200 ml 1:1 methanol/water
[4] = 1,8-diazabicyclo-7-undecene, 1.0 equivalents to dye
[5] = N,N-diisopropylethylamine, 1.0 equivalents to dye
[6] = pyridine, 1.0 equivalents to dye
[7] = triethanolamine, 1.0 equivalents to dye
[8] = triethanolamine, 1.2 equivalents to dye
[9] = triethylamine, 0.8 equivalents to dye
[10] = triethylamine, 1.0 equivalents to dye
[11] = 2,4,6-trimethylpyridine, 1.0 equivalents to dye
[12] = N-methylmorpholine, 1.0 equivalents to dye

Compound	Base (pKa) [1]	Degree of dissolution [2, 4]	Degree of dissolution ([2]; base absent)	Degree of dissolution [2, 7]	Degree of dissolution [2, 8]	Degree of dissolution [2, 9]	Degree of dissolution [2, 10]	pH Value of dye solution [3, 4]	pH Value of dye solution ([3]; base absent)	pH Value of dye solution [3, 7]	pH Value of dye solution [3, 8]	pH Value of dye solution [3, 9]	pH Value of dye solution [3, 10]	other results
Cc1cc(C)nc(C)c1 [2,4,6-Trimethylpyridine]	2,4,6-trimethylpyridine (7.43)	–	–	–	–	–	–	–	–	–	–	–	–	–
O=C(O)C[n+]1c(C=C2Sc3ccc(Cl)cc3N2CCCS(=O)(=O)[O-])sc2ccc(Cl)cc21 [Dye S-14]	–	good	failed	good	good	poor	good	10.8	6.1	7.3	7.4	6.9	9.4	Degree of dissolution [2, 5]: good; Degree of dissolution [2, 6]: failed; pH Value of dye solution [3, 5]: 10.1; pH Value of dye solution [3, 6]: 5.7
O=C(O)C[n+]1c(C=C2Sc3ccc(Cl)cc3N2CCCS(=O)(=O)[O-])sc2cc(Cl)sc21 [Dye S-37]	–	good	failed	good	good	poor	good	11.0	6.2	7.4	7.5	7.1	9.6	Degree of dissolution [2, 11]: good; Degree of dissolution [2, 12]: good; pH Value of dye solution [3, 11]: 7.2; pH Value of dye solution [3, 12]: 7.1
O=C(O)C[n+]1c(C=C2Sc3ccc(Br)cc3N2CCCS(=O)(=O)[O-])sc2ccsc21 [Dye S-39]	–	–	failed	good	good	poor	good	–	6.3	7.5	7.6	7.4	9.7	–
CN1CCOCC1 [N-methylmorpholine]	N-methylmorpholine (7.38)	–	–	–	–	–	–	–	–	–	–	–	–	–

— patent US6824967B2, “Method of preparing dye solution, and methods of producing silver halide emulsion and silver halide photographic material” (Fuji Photo Film Co., Ltd., priority 2002, dated 2004)
